Literature values, collected in PMC10531095, “Photonics of Some Monomethine Cyanine Dyes in Solutions and in Complexes with Biomolecules” (International Journal of Molecular Sciences, 2023).

Tested on: ssDNA
Set-up: method as in PMID 15249599
Details: ssDNA vs. dsDNA ref 62; cited from earlier work

## CCCN(CCCN(C)C)c1cc(/C=C2/Sc3ccccc3N2C)c2ccccc2[n+]1-c1ccccc1 [SYBR Green I]
  fluorescence increase with ssDNA, times lower than with dsDNA: about 11 times
